Read-outs that look alike come from different tables or passages of the source.

Assay [1] concerns nicotinic acetylcholine receptors. Conditions: cited from earlier work.
Assay [2] concerns melanoma X63-Ag8 cells. Kind of assay: total epibatidine-binding sites in X63-Ag8 cells. Conditions: mean and standard error of three independent experiments. The text has this:
(§1) The presence of nAChRs in B lymphocytes was further confirmed by studying the [^3H]-epibatidine and [^125I]-α-bungarotoxin binding. Epibatidine is a potent agonist of heteromeric nAChRs, while -α-bungarotoxin (α-Bgt) binds to both muscle-type nAChRs and homomeric neuronal-type of nAChRs. In addition, epibatidine penetrates inside the cell and binds both surface and intracellular receptors, while α-Bgt, when tested at ice-cold temperature, binds only surface-expressed receptors. Normal B lymphocytes and […] X63-Ag8 cells contained almost equal amounts of total epibatidine-binding sites per cell (12,220±3,200 and 10,170±1,100, respectively, means and standard error of three independent experiments).

For assay [3] the following is noted: in vivo; cited from earlier work.
Assay [4] deals with opioid receptor. The following applies: cited from earlier work.
Assay [5] has as its system PMN nicotinic receptors. Kind of assay: [3H]-epibatidine binding sites in PMN of smokers and non-smokers. Details: species or system human. The method, then:
(§2) FIG. 2: [^3H]-epibatidine (A) and [^125I]-α-bungarotoxin (B) binding sites in human polymorphonuclear cells isolated from smokers (n=90 and 60, respectively) and non-smokers (n=50). Binding levels were measured at 10 nM of [^3H]-epibatidine and [^125I]-α-bungarotoxin. Nonspecific binding was determined in the presence of 1 μM or 100 μM of nicotine, respectively.
(§3) Human polymorphonuclear leukocytes were isolated according to a slightly modified version of the method described by Cabanis (Cabanis, Gressier et al. 1994). Briefly, 20 ml of fresh heparinized blood were diluted with an equal amount of phosphate-buffered saline (PBS) 0.1 M, pH 7.4, and placed above 10 ml of Histopaque-1077. After centrifugation at 400 g for 30 min, the pellet was resuspended in 40 ml of cold isotonic ammonium chloride solution (NH4Cl 0.15 M, NaHCO3 10 mM). Following 20 min at 4° C., the cell suspension was centrifuged at 160 g for 10 minutes, and the white pellets were washed twice in 10 ml of Hank's buffer. The protein content was measured using the method developed by Lowry et al. (Lowry et al. 1951).
(§4) Binding assays were performed on intact purified PMN. Cellular protein (100 μg) was incubated with 10 nM [^3H]-epibatidine for 30 min. or with [^125I]-α-bungarotoxin for 60 min at 25° C. in a volume of 100 μl. Specific binding was defined as the difference between total binding and binding in the presence of 1 μM or 100 μM nicotine, performed in triplicate.
Nicotinic receptor binding sites in PMN were investigated from 90 smokers and 50 non-smokers. Participating smokers were recruited from the Centre de Tabacologie, Hôpital A. Chenevier, Créteil.

In assay [6] the test system is PMN nicotinic receptors. Kind of assay: saturation of specific [3H]-epibatidine binding to smokers' polymorphonuclear leukocytes. Set-up: species or system human. The method, then: Insets, Scatchard analyses of specific binding of [^3H]-epibatidine and [^125I]-α-bungarotoxin (1 pM to 10 nM). Nonspecific binding was determined in the presence of 1 μM or 100 μM of nicotine respectively. Data are the mean± standard error of three experiments.
as §3, §4
Saturation studies were conducted with increasing concentrations of [^3H]-epibatidine (1 pM-10 nM) and [^125I]-α-bungarotoxin (1 pM-10 nM). Specific binding was defined as the difference between total binding and binding in the presence of 1 μM or 100 μM nicotine, respectively, performed in triplicate. Following the binding reactions, bound and free ligands were separated by rapid vacuum filtration through Whatman GF/B fiberglass filters (Polylabo) treated with ice-cold buffer (KH2PO4 5 mM, Na2HPO4 20 mM, NaCl 100 mM, pH 7.4) containing 0.1% milk. The filters were rinsed three times with 5 ml of the same ice-cold buffer and placed in vials with 4 ml of Picofluor 30 scintillation liquid (Packard Instrument). The radioactivity was determined by liquid scintillation counting.
Binding experiments were investigated in smokers' polymorphonuclear leukocyte cells in presence of various concentrations of [^3H]-epibatidine ranging from 0.1 nM to 25 nM.
For each experiment, the mean values of RCR or percentages were compared in a one-way analysis of variance and a Dunneft test. EC50 was calculated by non-linear regression fit of effect-concentration (C) curve to the equation: E=(Emax×C)/(C+EC50), where Emax and EC50 are the maximal efficiency and the concentration producing 50% effect respectively, using commercially available software (Micropharm®) (Urien 1995). Data from binding experiments were analysed by means of non-linear regression with commercially available software (Micropharm®) (Urien 1995).

Assay [7] relates to Normal B lymphocytes. Kind of assay: total epibatidine-binding sites in B lymphocytes. Conditions: mean and standard error of three independent experiments.
Excerpt: as §1

For assay [8] the following is noted: hot plate assay; cited from earlier work. A general note: Thermal pain tests record how soon the animal reacts.
For assay [9], the system named is α3, α4 and β2 subunits.
Experimental: Total RNA was isolated from smokers and non-smokers (TRIZOL, Gibco). First strand cDNA synthesis reactions were performed after annealing 5 μg of total RNA with 100 ng random hexamers (70° C. for 10 minutes) by incubation at 42° C. for 50 minutes. Polymerase chain reactions were carried out in a 20 μl reaction volume containing 1 μl cDNA product, 250 ng of both forward and reverse primers (Table 1), 5 units of Taq polymerase then cycled 30 times at 95° C. for 1 minute, 55° C. for 1 minute and 72° C. for 2 minutes. The amplified DNA products were analysed by agarose gel electrophoresis and stained with ethidium bromide. The PCR products were transferred from the gel to Hybond-N^+ membranes (Amersham) and hybridised with a ^32P-end-labelled oligoprobe (Table 1). Southern blot hybridizations were performed overnight at 42° C. in hybridisation buffer (5×SSC, 1× Denhardt's, 20 mM sodium phosphate buffer pH 6.5, 0.1% SDS, 100 μg/ml tRNA). The Southern blots were washed for 1 hour at room temperature in 2×SSC and 1% SDS, then exposed to X-ray film (Kodak Biomax) overnight with an intensifying screen.
Assay [10] deals with human polymorphonuclear cells.
Assay [11] relates to human polymorphonuclear cells. This is another data set of the same source.
Assay [12] relates to PMN nicotinic receptors. Kind of assay: saturation of specific [125I]-α-bungarotoxin binding to smokers' polymorphonuclear leukocytes. Details: species or system human.
Experimental: FIG. 1: Saturation of specific [^3H]-epibatidine (A) and [^125I]-α-bungarotoxin (B) binding to human polymorphonuclear cells. Insets, Scatchard analyses of specific binding of [^3H]-epibatidine and [^125I]-α-bungarotoxin (1 pM to 10 nM). […] Data are the mean± standard error of three experiments.
Saturation studies were conducted with increasing concentrations of [^3H]-epibatidine (1 pM-10 nM) and [^125I]-α-bungarotoxin (1 pM-10 nM). […] Following the binding reactions, bound and free ligands were separated by rapid vacuum filtration through Whatman GF/B fiberglass filters (Polylabo) treated with ice-cold buffer (KH2PO4 5 mM, Na2HPO4 20 mM, NaCl 100 mM, pH 7.4) containing 0.1% milk. The filters were rinsed three times with 5 ml of the same ice-cold buffer and placed in vials with 4 ml of Picofluor 30 scintillation liquid (Packard Instrument). The radioactivity was determined by liquid scintillation counting.
Smokers' polymorphonuclear leukocytes (n=3) were used to investigate saturation experiments.
In assay [13] the test system is PMN nicotinic receptors. Put plainly: [125I]-α-bungarotoxin binding sites in PMN of smokers and non-smokers. Details: species or system human. The method, then: as §2, §3
Binding assays were performed on intact purified PMN. Cellular protein (100 μg) was incubated with 10 nM [^3H]-epibatidine for 30 min. or with [^125I]-α-bungarotoxin for 60 min at 25° C. in a volume of 100 μl. […]

As to `CNC1(C)C2CCC(C2)C1(C)C` (stereo not shown) [mecamylamine], the “blockade of epibatidine binding to nicotinic acetylcholine receptors” value in assay [1] (noncompetitive nicotinic antagonist) is on record as “can be blocked”.
Broadly, the Hill coefficient is a measure of the steepness of the concentration-response curve. The term Ki denotes a measure of affinity in units of concentration, obtained from inhibition or displacement. Consider `Clc1ccc(C2CC3CCC2N3)cn1` (stereo not drawn) [epibatidine, exo-2(6-chloro-3-pyridyl)-7-azabicyclo[2.2.1]-heptane], for which the “total epibatidine-binding sites per cell” value in assay [2] is given as 10,170±1,100 sites per cell; in [7], 12,220±3,200 sites per cell. Also, the “eliciting the Straub-tail response compared with morphine” value in assay [3] is given as “approximately 500 fold that of morphine”. Further, in assay [4], the “affinity for the opioid receptor” value was 1/8000. Further, in assay [5] (50 non-smokers, listed as [^3H]-epibatidine), the “binding sites in non-smokers' PMN” value is “not present and None”. For the same compound, in assay [5] (90 smokers), the “smokers with detected binding sites” value worked out at 82%. In addition, the “total number of binding sites in smokers” value in assay [5] (PMN of smokers, 10 nM radioligand) amounted to 40.65±4.89 fmol/mg protein. The Hill coefficient in [6] (biphasic Scatchard plot) was found to be 0.76. In addition, in assay [6] (first site), the “Bmax1, high affinity site” value is 46.97±5.64 fmol/mg protein. Further, the “share of the total binding sites, high affinity site” value in [6] (first site) is 86.86%. Also, the Kd in [6] (first site, read-out: Kd2, high affinity site) stood at 2.11 ± 0.43 nM; in assay [6] (second site, read-out: Kd1, very high affinity site), 0.0563 ± 0.0278 nM. Also, the “Bmax1, very high affinity site” value in assay [6] (second site) is reported as 7.73±0.64 fmol/mg protein. Moreover, in assay [6] (second site), the “share of the total binding sites, very high affinity site” value is on record as 14.14%. Further, the Ki in assay [1] (nAChR, restated in pM) is ~55 pM; in [1] (nAChR), 43 to 55 pM. Moreover, in assay [8], the “analgesic effect compared with morphine” value is on record as “approximately 200 times higher than morphine”.
`Cc1cc([C@H]2C[C@@H]3CC[C@H]2N3)on1` [epiboxidine]: in [1] (nAChR), the Ki is 600 pM.
Turning to `CN1CCCC1c1cccnc1` (stereo not shown) [nicotine], the “nAChR subunit expression after ex-vivo nicotine exposure” value in assay [9] is “induced expression of α3, α4 and β2 subunits”. In assay [10], the “Bmax of [3H]-epibatidine binding sites after nicotine” value is recorded as 34.66±6.25 fmol/mg protein, the “formation of [3H]-epibatidine binding sites” value was “induced the formation”, the “increase of the number of [3H]-epibatidine binding sites” value was 2.67 fold and the “number of [3H]-epibatidine binding sites after nicotine” value stood at 29.19±10.28 fmol/mg protein. Also, the inhibitory constant (Ki) in assay [1] was 1010 pM. The “change in the binding of [125I]-α-bungarotoxin to PMN” value in [11] is recorded as “no change”.
On to [^125I]-α-bungarotoxin, for which, in assay [12], the Bmax is recorded as 189.46±126.27 fmol/mg proteins and the “nH (Scatchard plot linearity)” value is given as 1.08±0.06. In addition, the Kd in assay [12] (read-out: apparent Kd) is 2.77 ± 1.54 nM. In addition, in assay [13], the “PMN tested that demonstrated binding sites” value is “Approximately 30%” and the “binding sites in smokers compared with non-smokers” value is “No difference”.

Values taken from patent publication US20040058310A1 (priority 2002, published 2004).
